The target in one test is T1, 5-HT1A receptor (Rattus norvegicus, UniProt P19327).
T1 construct: The rat cerebral cortex was homogenized in 50 mM Tris hydrochloride buffer; from tissue; host or cells: rat cerebral cortex membranes
T1 sequence (P19327 1-422): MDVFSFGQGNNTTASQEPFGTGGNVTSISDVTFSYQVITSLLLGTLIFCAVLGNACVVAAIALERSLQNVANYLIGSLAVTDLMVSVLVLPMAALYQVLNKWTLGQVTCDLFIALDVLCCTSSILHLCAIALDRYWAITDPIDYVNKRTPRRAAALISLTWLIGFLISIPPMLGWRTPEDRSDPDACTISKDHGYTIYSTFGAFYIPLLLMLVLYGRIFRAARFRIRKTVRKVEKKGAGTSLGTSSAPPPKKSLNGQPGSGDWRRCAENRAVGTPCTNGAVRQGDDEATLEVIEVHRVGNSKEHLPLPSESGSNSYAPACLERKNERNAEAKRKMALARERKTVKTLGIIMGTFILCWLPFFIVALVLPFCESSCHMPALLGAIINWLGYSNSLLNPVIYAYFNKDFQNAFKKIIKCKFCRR
The test is described as follows: Selectivity for receptors: 5-HT1A receptor, inhibition of [^3 H] 8-OH-DPAT binding to rat cerebral cortex membrane. As to the method: (§1) The selectivity for receptors of the quinolinecarboxylic acid derivatives of the present invention was examined by the following method.
The affinity to serotonin 1A (5-HT1A) receptor was examined by the method described in […], J. R. et al., Biochem. Pharmacol., 12, 1943-1949 (1986).
The affinity to serotonin 1A (5-HT1A) was examined in terms of inhibition of [^3 H] 8-OH-DPAT (Daiichi Kagaku Yakuhin Co.) binding to rat cerebral cortex membrane. The rat cerebral cortex was homogenized in 50 mM Tris hydrochloride buffer (pH 7.4) followed by centrifugation at 48,000 G.
The pellet was washed once with Tris hydrochloride buffer. Then the pellet was suspended in 50 mM Tris hydrochloride buffer (supplemented with 0.01 mM pargyline and 0.1% ascorbic acid, pH 7.7) and provided for use as the membrane preparation. The membrane specimen was reacted with 1 nM [^3 H] 8-OH-DPAT at 37° C. for 15 minutes. After the reaction, the membrane was caught by a harvester. Non-specific binding was defined as that taken in the presence of 10 μM 5-HT.

The test system of test [1] is gastrointestinal motor function. To be noted: TALLEY, N. J., 1992; cited from earlier work.
The target in the next test is T2, 5-HT3 receptor (Rattus norvegicus, UniProt P35563).
T2 construct: The rat cerebral cortex was homogenized in 50 mM Tris hydrochloride buffer; from tissue; host or cells: rat cerebral cortex membranes
T2 sequence (P35563 24-483): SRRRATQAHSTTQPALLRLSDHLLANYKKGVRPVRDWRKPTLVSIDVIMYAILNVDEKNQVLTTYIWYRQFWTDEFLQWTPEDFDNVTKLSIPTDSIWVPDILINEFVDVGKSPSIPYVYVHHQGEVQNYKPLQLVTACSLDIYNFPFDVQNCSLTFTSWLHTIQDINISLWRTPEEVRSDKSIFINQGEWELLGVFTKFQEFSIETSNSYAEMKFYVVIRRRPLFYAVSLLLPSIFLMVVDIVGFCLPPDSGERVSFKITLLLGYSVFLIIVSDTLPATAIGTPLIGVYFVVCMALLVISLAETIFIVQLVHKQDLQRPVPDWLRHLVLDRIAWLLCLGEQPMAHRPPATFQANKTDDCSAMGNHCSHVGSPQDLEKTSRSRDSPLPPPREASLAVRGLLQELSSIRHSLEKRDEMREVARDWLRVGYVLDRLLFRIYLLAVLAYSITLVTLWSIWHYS
Nature of the test: Selectivity for receptors: 5-HT3 receptor, inhibition of [^3 H]GR65630 binding to rat cerebral cortex membrane. To be noted: [^3 H]GR65630 0.2 nM, read-out: 5-HT3 receptor antagonizing action (IC50). As to the method: as §1
The affinity for serotonin 3 receptor was examined by the method described in […], G. J. et al., Nature (London), 330, 746-748 (1987).
The affinity to serotonin 3 (5-HT3) was examined in terms of inhibition of [^3 H]GR65630 binding (Daiichi Kagaku Yakuhin Co.) binding to rat cerebral cortex membrane. The rat cerebral cortex was homogenized in 50 mM Tris hydrochloride buffer (pH 7.4) followed by centrifugation at 48,000 G. The precipitates were washed once with Tris hydrochloride buffer. Then the precipitates were suspended in 50 mM Tris hydrochloride buffer and provided for use as the membrane preparation. The membrane preparation was reacted with 0.2 nM [^3 H]GR65630 at 37° C. for 30 minutes. After the reaction, the membrane was caught by a harvester. Non-specific binding was defined as the binding taken in the presence of 1 μM zacopride.

Test [2] addresses T3, serotonin 4 receptor (5-HT4) (Cavia porcellus, UniProt O70528).
T3 construct: from tissue; host or cells: longitudinal muscle strips of guinea pig ileum (Harley guinea pigs)
Nature of the test: Stimulating activity on serotonin 4 receptor (twitch response in guinea pig ileum). Format: cell-based. As to the method:
Stimulating activity on serotonin 4 receptor
From Harley guinea pigs weighing 250 to 400 g, a section of ileum 10 to 20 cm proximal to the ileocecal junction was removed. Longitudinal muscle strips obtained from the ileum were used for this assay. The preparations were suspended in Krebs' solution at 32 to 34° C., bubbled continuously with 95% O2 and 5% CO2, and subjected to initial tension of about 0.8 g. Responses were recorded isometrically. Twitch responses were evoked by electrical stimulation (0.2 Hz, 1 msec pulse duration). The preparations were stimulated at supramaximal voltage for 2 to 3 hours, and were then allowed to equilibrate for about 1 hour at submaximal voltage. […] The preparations were left for at least 45 minutes before cumulative addition of each agonist.
The quinolinecarboxylic acid derivatives of the present invention were employed as sample compounds. For comparison, the following compounds were employed. These compounds were diluted by dissolving them in distilled water or in DMSO.
The data obtained was analyzed by RS1 (BBN Software Product Co.).

A further test addresses T4, Dopamine D2 receptor (Rattus norvegicus, UniProt P61169).
T4 construct: The rat striatum was homogenized in 50 mM Tris hydrochloride buffer; from tissue; host or cells: rat striatal membranes
The test is described as follows: Selectivity for receptors: dopamine D2 receptor, inhibition of [^3 H] raclopride binding to rat striatal membrane. The settings on record: [^3 H] raclopride 1 nM, symbol, no activity in 10 μM, read-out: Dopamine D2 receptor antagonizing action (IC50). As to the method: as §1
The affinity to dopamine 2 (D2) receptor was examined according to the method described in MALMBERG, A. et al., Mol Pharmacol., 43, 749-754 (1993).
The affinity for D2 receptor was studied in terms of the inhibition of [^3 H] raclopride (Daiichi Kagaku Yakuhin Co.) binding to rat striatal membrane. The rat striatum was homogenized in 50 mM Tris hydrochloride buffer (pH 7.4) followed by centrifugation at 48,000 G. The pellet was washed once with Tris hydrochloride buffer. Then the pellet was suspended in 50 mM Tris hydrochloride buffer (containing 120 mM NaCl, 5 mM KCl, 2 mM CaCl2, 1 mM MgCl2, pH 7.4) and provided for use as the membrane preparation. The membrane preparation (0.5 mg protein/ml) was reacted with 1 nM [3H] raclopride at 25° C. for 60 minutes. After the reaction, the membrane was caught by a harvester. Non-specific binding was defined as that taken in the presence of 10 μM haloperidol.

A further test has as its target T5, 5-HT4 receptor (Cavia porcellus, UniProt O70528).
T5 construct: The longitudinal muscle strip from guinea pig was homogenized; from tissue; host or cells: membranes of guinea pig ileum longitudinal muscle strip
The test is described as follows: Inhibition of 5-HT4 receptor-binding ([^3 H]GR113808 binding in guinea pig ileum). As to the method: Effect on inhibition of 5-HT4 receptor-binding
The effect on inhibition of 5-HT4 receptor-binding of the quinolinecarboxylic acid derivatives of the present invention was examined according to the method described in GROSSMAN et al., Br. J. Pharmacol., 109, 618 (1993).
The longitudinal muscle strip from guinea pig was homogenized in 0.32M sucrose with a Teflon-glass homogenizer. After centrifugation at 900 G for 10 minutes, the upper fraction of lipids and precipitates was discarded and the supernatant was centrifuged at 100,000 G (48,000 rpm) for an hour. The pellet was resuspended in 50 mM HEPES buffer. After incubation at 37° C. for 30 minutes, the suspension was centrifuged at 48,000 rpm for 20 minutes. The pellet was suspended in HEPES buffer supplemented with 10^-6 M pargyline and 0.1% ascorbic acid. The suspension was used for the binding assay.
Non-specific binding was defined as that taken in the presence of 3×10^-5 M 5-HT. B/F separation was performed through GF/B filter treated with 0.1% polyethyleneimine, using a cell harvester. Washing was performed once.

Where [3] appears, read: [^3 H] 8-OH-DPAT 1 nM, rat cerebral cortex membrane, symbol, no activity in 10 μM, read-out: 5-HT1A receptor antagonizing action (IC50).

Like-named read-outs stand apart in the source and are kept apart here. Bounds are passed on as bounds.

The text below walks through data of patent publication US5753673A, “Quinolinecarboxylic acid derivatives” (Taisho Pharmaceutical Co., Ltd., priority 1994, dated 1998).

T3 sequence (O70528 whole entry): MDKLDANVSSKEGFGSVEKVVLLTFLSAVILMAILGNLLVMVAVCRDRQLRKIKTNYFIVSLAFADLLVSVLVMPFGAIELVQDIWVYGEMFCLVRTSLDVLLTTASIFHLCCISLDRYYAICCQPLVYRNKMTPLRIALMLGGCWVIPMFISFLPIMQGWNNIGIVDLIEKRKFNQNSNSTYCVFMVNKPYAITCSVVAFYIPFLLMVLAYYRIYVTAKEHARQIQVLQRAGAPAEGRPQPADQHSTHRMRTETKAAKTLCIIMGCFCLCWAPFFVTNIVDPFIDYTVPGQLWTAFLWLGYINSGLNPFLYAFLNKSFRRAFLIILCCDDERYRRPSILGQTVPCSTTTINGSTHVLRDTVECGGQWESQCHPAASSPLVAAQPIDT
T5 sequence (O70528 whole entry): as above
T4 sequence (P61169 whole entry): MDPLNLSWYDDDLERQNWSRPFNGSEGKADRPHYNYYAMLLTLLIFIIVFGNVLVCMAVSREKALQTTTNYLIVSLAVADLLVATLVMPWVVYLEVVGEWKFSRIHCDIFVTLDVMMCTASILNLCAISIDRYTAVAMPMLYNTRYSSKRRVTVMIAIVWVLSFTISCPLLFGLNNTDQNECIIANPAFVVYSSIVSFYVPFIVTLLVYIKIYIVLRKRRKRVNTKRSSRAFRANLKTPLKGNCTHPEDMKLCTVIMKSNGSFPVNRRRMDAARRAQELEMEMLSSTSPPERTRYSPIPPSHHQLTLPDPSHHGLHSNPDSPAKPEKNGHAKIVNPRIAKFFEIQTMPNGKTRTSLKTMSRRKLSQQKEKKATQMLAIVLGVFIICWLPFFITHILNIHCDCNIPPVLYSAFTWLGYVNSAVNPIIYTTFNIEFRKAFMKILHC

Consider `COc1cc(N)c(Cl)cc1C(=O)N[C@@H]1CCN(CCCOc2ccc(F)cc2)C[C@@H]1OC` (relative stereo) [Comparative Compound 1, Cisapride, reference compound], for which the 50% inhibitory concentration (IC50) (commonly the concentration needed to halve the response being measured) at 5-HT1A receptor was found to be 64.7 nM. Moreover, the “effect on gastrointestinal motor function and conditions” value in test [1] is “accelerate the gastrointestinal motor function and improve the gastrointestinal conditions”.
As to `CCOCCN1C2CCC1CC(NC(=O)c1cc3ccccc3n(C(C)C)c1=O)C2` (stereo not drawn) [Compound 11, Endo-N-(8-(2-ethoxyethyl)-8-azabicyclo[3.2.1]oct-3-yl)-1-isopropyl-2-oxo-1,2-dihydro-3-quinolinecarboxamide], the IC50 on 5-HT1A receptor (setting [3]) was over 10000 nM; on 5-HT3 receptor, 423 nM; on Dopamine D2 receptor, over 10000 nM; on 5-HT4 receptor, 68.7 ± 7.32 nM. In addition, in test [2], the midpoint of the response, the EC50, lay at 18.7 nM.
On to `CC(C)n1c(=O)c(C(=O)N[C@H]2C[C@H]3CC[C@@H](C2)N3CCN2CCOCC2)cc2ccccc21` [Compound 20, endo-N-(8-(2-morpholinoethyl)-8-azabicyclo[3.2.1]oct-3-yl)-1-isopropyl-2-oxo-1,2-dihydro-3-quinolinecarboxamide], for which the half-maximal inhibitory concentration (IC50) on 5-HT1A receptor (setting [3]) is over 10000 nM; on 5-HT3 receptor, 509 nM; on Dopamine D2 receptor it was over 10000 nM; on 5-HT4 receptor it was 78.1 ± 14.5 nM. Moreover, in test [2], the half-maximal effective concentration (EC50) (in general, the midpoint of the concentration-response curve) is 25.5 nM.
As for `COc1cc(N)c(Cl)cc1C(=O)NC1CCN2CCCC1C2` (stereo not shown) [renzapride], in test [1], the “effect on gastrointestinal motor function and conditions” value is “accelerate the gastrointestinal motor function and improve the gastrointestinal conditions”.
